Test results: patent US7557123B2, “Heterocyclic compound and medicinal use thereof” (Kyoto Pharmaceutical Industries, Ltd., priority 2001, dated 2009)
Converted amounts (≈) assume the structure as drawn.

Legend:
[1] = tested on: male KK-A^y mice; assay: Hypoglycemic and hypolipidemic activity in spontaneously diabetic KK-Ay mice; assay type: in vivo; conditions: 10 mg/kg/day orally for 4 consecutive days, plasma 24 hours after final administration, non-fasting, vs control group
Protocol: Blood was drawn under a non-fasting state from the tail vein of male KK-A^y mice, and the glucose and triglyceride levels of the plasma were measured using commercially available assay kits (glucose CII-test WAKO and triglyceride G-test WAKO, Wako Pure Chemical Industries, Ltd.). The mice were grouped (5 mice per group) into a control group and an administration group, such that the mean and standard deviation of the body weight and the plasma glucose and plasma triglyceride levels in each group were nearly the same. The test compounds (compounds of Examples 1, 2, 4, 8, 20, 22, 24, 27, 30, 33, 36, 37, 40, 45, 47, 52, 56, 58 and 64) were suspended in 5% gum arabic solution and administered (10 mg/kg/day) orally to the administration group for 4 consecutive days. The 5% gumarabic solution was orally administered to the control group. Blood was drawn under a non-fasting state from the tail vein 24 hours after the final administration and the glucose and triglyceride levels of the plasma were measured. The decrease in the plasma glucose and triglyceride levels was calculated from the following formula. Decrease (%)=[(mean of control group−mean of test compound administration group)/mean of control group]×100 Results

[2] = tested on: male db/db mice; assay: Hypoglycemic and hypolipidemic activity in db/db mice; assay type: in vivo; conditions: 3 mg/kg/day orally for 2 consecutive weeks, plasma 24 hours after final administration, non-fasting, vs control group
Protocol: Using db/db mice genetically showing high plasma glucose, hypertriglyceridemia, insulin resistance and obesity, the pharmacological activity of the test compounds of Examples 1, 2 and 20 was examined.
Blood was drawn under a non-fasting state from the tail vein of male db/db mice, the glucose level and triglyceride level of the plasma were measured using commercially available assay kits (glucose CII-test WAKO and triglyceride G-test WAKO, Wako Pure Chemical Industries, Ltd.). The mice were grouped (6 mice per group) into a control group and test compound (compounds of Examples 1, 2 and 20) administration group (3 mg/kg/day), such that the mean and standard deviation of the body weight and the plasma glucose and plasma triglyceride levels in each group were nearly the same. The test compound was suspended in 0.5% methylcellulose solution and administered orally for 2 consecutive weeks from the next day. The 0.5% methylcellulose solution was orally administered to the control group. Blood was drawn under a non-fasting state from the tail vein 24 hours after the final administration and the glucose and triglyceride levels of the plasma were measured. The decrease in the plasma glucose and triglyceride levels was calculated from the following formula. Decrease (%)=[(mean of control group−mean of test compound administration group)/mean of control group]×100 Results

[3] = tested on: male ICR mice; assay: Toxicity by repeat administration in ICR mice; assay type: in vivo; conditions: 30 and 100 mg/kg/day orally for 2 consecutive weeks, vs control group; for plasma volume: calculated from Evans blue concentration; for weight of the heart / weight of the liver: wet weight
Protocol: Using 7-week-old male ICR mice, toxicity by repeat administration was examined.
The mice were grouped (7 mice per group) into a control group and test compound (compounds of Examples 2 and 20) administration groups (30 and 100 mg/kg/day), such that the mean and the standard deviation of the body weight of the mice were nearly the same. The test compound was suspended in 0.5% methylcellulose solution and administered orally for 2 consecutive weeks from the next day. The 0.5% methylcellulose solution was orally administered to the control group. At 24 hours after the final administration, Evans blue (100 μg/mouse) was administered from the tail vein and, 5 min later, the blood was drawn from the orbital venous plexus with anesthesia. Using EDTA-added blood, hematocrit value and erythrocyte count were measured. Using the plasma, Evans blue concentration was measured, from which plasma volume was calculated. The liver and heart were removed and wet weight was measured.

[4] = tested on: female Wistar rats; assay: Toxicity by repeat administration in Wistar rats; assay type: in vivo; conditions: 30 and 100 mg/kg/day orally for 2 consecutive weeks, vs control group; for ALT (GPT) / AST (GOT): serum; for weight of the heart / weight of the liver / weight of the white fat around the uterus: wet weight
Protocol: Using 6-week-old female Wistar rats, toxicity by repeat administration was examined.
The rats were grouped (6 rats per group) into a control group and test compound (compounds of Examples 2 and 20) administration groups (30 and 100 mg/kg/day), such that the mean and the standard deviation of the body weight of the rats were nearly the same. The test compound was suspended in 0.5% methylcellulose solution and administered orally for 2 consecutive weeks from the next day. The 0.5% methylcellulose solution was orally administered to the control group. The rats were fasted for 16 hr from the last day of administration, anesthetized by intraperitoneal administration of pentobarbital sodium (50 mg/kg) 24 hr after the final administration and the blood was drawn. Using EDTA-added blood, hematocrit value and erythrocyte count were measured, and using serum, AST (GOT) and ALT (GPT) were measured. In addition, the white fat around the uterus, and the liver and heart were removed and the wet weights thereof were measured.

[5] = Solubility of the compound in water (buffer pH 7.0); assay type: physicochemical; conditions: 25 mg in 1.0 ml buffer pH 7.0, shaken at 25° C. for 1 hr, filtrate by HPLC
Protocol: The pulverized test compound (compounds of Examples 2, 20, 22, 24, 27, 30, 40 or 65, 25 mg) was added to a buffer (1.0 ml, pH 7.0) and the mixture was shaken at 25° C. for 1 hr and passed through a membrane filter. The concentration of the test compound in the filtrate was measured by high performance liquid chromatography.

## CC(C)(C)N.CC=CC=CC(=O)N1Cc2cc(OCCc3nc(/C=C/CC(C)C)oc3C)ccc2C[C@H]1C(=O)O (stereo in doubt) [Example 20, tert-butylamine 2-(2,4-hexadienoyl)-7-{2-[5-methyl-2-(4-methyl-trans-1-penten-1-yl)oxazol-4-yl]ethoxy}-1,2,3,4-tetrahydroisoquinoline-(3S)-carboxylate]
[1]
  Decrease (%) in glucose level: 57.7%
  Decrease (%) in triglyceride level: 65.6%
[2]
  Decrease (%) in glucose level: 54.0%
  Decrease (%) in triglyceride level: 72.0%
[3]
  plasma volume: no significant difference
  body weight: no significant difference
  erythrocyte count: no significant difference
  hematocrit value: no significant difference
  weight of the heart: no significant difference
  weight of the liver: no significant difference
[4]
  ALT (GPT): no significant difference
  AST (GOT): no significant difference
  erythrocyte count: no significant difference
  hematocrit value: no significant difference
  weight of the heart: no significant difference
  weight of the liver: no significant difference
  weight of the white fat around the uterus: no significant difference
[5]
  Solubility (mg/ml): 25 or above mg/ml

## CC=CC=CC(=O)N1Cc2cc(OCCc3nc(/C=C/CCC)oc3C)ccc2C[C@H]1C(=O)O (stereo in doubt) [Example 2, 2-(2,4-hexadienoyl)-7-[2-(5-methyl-2-(trans-1-penten-1-yl)oxazol-4-yl)ethoxy]-1,2,3,4-tetrahydroisoquinoline-(3S)-carboxylic acid]
[1]
  Decrease (%) in glucose level: 40.3%
  Decrease (%) in triglyceride level: 40.5%
[2]
  Decrease (%) in glucose level: 57.2%
  Decrease (%) in triglyceride level: 78.1%
[3]
  plasma volume: no significant difference
  body weight: no significant difference
  erythrocyte count: no significant difference
  hematocrit value: no significant difference
  weight of the heart: no significant difference
  weight of the liver: no significant difference
[4]
  ALT (GPT): no significant difference
  AST (GOT): no significant difference
  erythrocyte count: no significant difference
  hematocrit value: no significant difference
  weight of the heart: no significant difference
  weight of the liver: no significant difference
  weight of the white fat around the uterus: no significant difference
[5]
  Solubility: 10000 µg/mL (≈ 21.5 mM)
